Measurements taken from patent publication US10179789B2, “Methylenedioxybenzo [I] phenanthridine derivatives used to treat cancer” (Rutgers, The State University of New Jersey, priority 2009, dated 2019).

How the values were obtained:
[1] = tested on: KBV-1 (variant that overexpresses efflux transporter MDR1); experiment: Cytotoxicity on KBV-1 (overexpresses MDR1); format: cell-based
Description: (§1) The cytotoxicity was determined using the MTT-microtiter plate tetrazolinium cytotoxicity assay (MTA). The human lymphoblast RPMI 8402 and its camptothecin-resistant variant cell line, CPT-K5 was provided by Dr. Toshiwo Andoh (Aichi Cancer Center Research Institute, Nagoya, Japan). (36) The P388 mouse leukemia cell line and its CPT-resistant TOP1-deficient variant P388/CPT45 (37) were obtained from Michael R. Mattern and Randal K. Johnson (GlaxoSmithKline, King of Prussia, Pa.). The KB3-1 cell line and its multidrug-resistant variant KBV-1 (38) were obtained from K. V. Chin (The Cancer Institute of New Jersey, New Brunswick, N.J.). The KBH5.0 cell line as noted previously (21) was derived from KB3-1 by stepwise selection against Hoechst 33342. The cytotoxicity assay was performed using 96-well microtiter plates. Cells were grown in suspension at 37° C. in 5% CO2 and maintained by regular passage in RPMI medium supplemented with 10% heat inactivated fetal bovine serum, L-glutamine (2 mM), penicillin (100 U/mL), and Streptomycin (0.1 mg/mL). For determination of IC50, cells were exposed continuously for FOUR days to varying concentrations of drug, and MTT assays were performed at the end of the fourth day. […] All assays were performed at least twice in six replicate wells.
(§2) The cytotoxicity of the representative compounds of the invention were also tested on cell line KB3-1 (parent cell line), KBV-1 (a variant that overexpresses efflux transporter MDR1) and KBH5.0 (a variant that overexpresses BCRP). Differences in the relative cytotoxicity between the parent and variant cell lines may be indicative of a compound that is a substrate for an efflux transporter. […] Accordingly, compounds of the invention of formula I may be useful to treat tumors that are resistant to other anticancer agents, especially anticancer agents that are susceptible to efflux by BCRP (e.g. anthracyclines, mitoxantrone, topotecan, irinotecan, bisanthrone, doxorubicin, daunorubicin, and epirubin.

[2] = tested on: CPT-K5 (camptothecin-resistant variant of RPMI 8402); experiment: Test B. MTT cytotoxicity assay, CPT-K5; format: cell-based, human
Description: (§3) Test B. Cytotoxic Assays (Cancer Cell Lines and Efflux Transporter Cell Lines)
as §1

[3] = tested on: KBH5.0 (variant that overexpresses BCRP); experiment: Cytotoxicity on KBH5.0 (overexpresses BCRP); format: cell-based
Description: as §1, §2

[4] = tested on: P388/CPT45 (CPT-resistant TOP1-deficient variant of P388); experiment: Test B. MTT cytotoxicity assay, P388/CPT45; format: cell-based, mouse
Description: as §3, §1

[5] = tested on: P388 mouse leukemia cell line; experiment: Test B. MTT cytotoxicity assay, P388; format: cell-based
Description: as §3, §1

[6] = tested on: RPMI 8402 human lymphoblast cells; experiment: Test B. MTT cytotoxicity assay, RPMI8402; format: cell-based
Description: as §3, §1

KB3-1 cell line = experiment: Cytotoxicity on KB3-1 (parent cell line); format: cell-based
Description: as §1, §2

human topoisomerase I = target: T1, human topoisomerase I (Homo sapiens, UniProt P11387); experiment: Test A. Topoisomerase I-mediated DNA cleavage assay; format: biochemical; settings: Relative Effective Concentration; relative to camptothecin arbitrarily assumed as 0.2; same 10% cleavage on plasmid DNA
T1 construct: unnamed fusion partner (recombinant fusion protein, T7 expression system); made in house; host or cells: Escherichia coli
T1 sequence (P11387 1-765): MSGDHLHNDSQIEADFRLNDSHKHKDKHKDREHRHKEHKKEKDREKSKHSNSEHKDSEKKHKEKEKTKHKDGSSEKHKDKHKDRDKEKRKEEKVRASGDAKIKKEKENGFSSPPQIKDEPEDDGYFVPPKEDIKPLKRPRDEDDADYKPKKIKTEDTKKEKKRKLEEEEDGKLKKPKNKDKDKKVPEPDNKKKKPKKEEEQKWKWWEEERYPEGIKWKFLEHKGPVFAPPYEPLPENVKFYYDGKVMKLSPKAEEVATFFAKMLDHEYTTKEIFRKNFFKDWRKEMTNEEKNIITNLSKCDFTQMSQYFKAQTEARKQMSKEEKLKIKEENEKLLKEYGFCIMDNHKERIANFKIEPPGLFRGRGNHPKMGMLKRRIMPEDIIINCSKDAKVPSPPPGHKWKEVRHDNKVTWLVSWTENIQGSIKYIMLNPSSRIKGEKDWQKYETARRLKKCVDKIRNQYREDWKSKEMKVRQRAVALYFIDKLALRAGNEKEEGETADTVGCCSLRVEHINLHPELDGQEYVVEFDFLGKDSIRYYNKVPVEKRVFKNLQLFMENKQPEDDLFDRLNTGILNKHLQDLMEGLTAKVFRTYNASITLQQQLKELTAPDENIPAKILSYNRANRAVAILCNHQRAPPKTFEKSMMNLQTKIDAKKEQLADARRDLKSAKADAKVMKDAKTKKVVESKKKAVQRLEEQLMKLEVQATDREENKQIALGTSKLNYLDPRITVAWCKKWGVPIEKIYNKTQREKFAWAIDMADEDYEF
Excerpt: Test A. Topoisomerase I—Mediated DNA Cleavage Assay Human topoisomerase I was expressed in Escherichia coli and isolated as a recombinant fusion protein using a T7 expression system as described previously (31). Plasmid YepG was also purified by the alkali lysis method followed by phenol deproteination and CsCl/ethidium isopycnic centrifugation method as described (32). The 3′ end labeling of the plasmid was accomplished by digestion with a restriction enzyme followed by end filling with Klenow polymerase as previously described (33). The cleavage assays were performed as previously reported (34,35). The drug and the DNA in presence of topoisomerase I was incubated for 30 min at room temperature. The reactions were terminated by the addition of 5 μL of 5% SDS and 1 mg/mL […] with an additional 1 h of incubation at 37° C. […] After development of the gels, typically 24-h exposure was used to obtain autoradiograms outlining the extent of DNA fragmentation. Topoisomerase I-mediated DNA cleavage values are reported as Relative Effective Concentration (REC). […] Results for the assay for representative compounds of the invention of formula I along with comparison compounds are shown in Table 1.

**Q.** For `COc1cc2c(C(=O)NCC(C)(C)N(Cc3ccccc3)Cc3ccccc3)cc3c4cc5c(cc4ncc3c2cc1OC)OCO5` [Compound 32, N-(2-(Dibenzylamino)-2-methylpropyl)-2,3-dimethoxy-8,9-methylene-dioxybenzo[i]phenanthridine-12-carboxamide], which IC50 [1] is on record?
**A.** Its IC50 is 2900 nM.

**Q.** And the IC50 [2]?
**A.** Its IC50 is 5 µM.

**Q.** What about the IC50 [3] of the same compound?
**A.** The IC50 was 600 nM.

**Q.** What about the IC50 [4] of the same compound?
**A.** Its IC50 is 1300 nM.

**Q.** What about the IC50 [5] of the same compound?
**A.** Its IC50 is 30 nM.

**Q.** And the IC50 [6]?
**A.** The IC50 was 60 nM.

**Q.** And the IC50 (KB3-1 cell line)?
**A.** Its IC50 is 20 nM.

**Q.** And the “TOP1 Mediated DNA Cleavage (REC Value)” value (human topoisomerase I)?
**A.** The value was 1.5.
